From US20240009304A1, “USE OF NGF ANTIBODY IN CIPN PAIN” (Dartsbio Pharmaceuticals Ltd., priority 2020, published 2024)
Several values for one entry are separate records, joined by “and”; a condition that tells them apart may be missing. Equal entries are not always repeated.

How the values were obtained:
Format in all cases: in vivo
[1] = tested on: cisplatin-induced neuropathic pain model in SD rats; assay: acetone cold allodynia, cisplatin-induced neuropathic pain model; conditions: for Mean value of response frequency of cold allodynia / Mean value of acetone-induced foot withdrawal behavior total score: s.c.
Protocol: (§1) Except for the blank control group, the other four groups were administered subcutaneously with DS002 on D-3, D3 and D9, respectively, and the von Frey echanical allodynia and acetone cold allodynia were measured on D7, D14 and D8, D15, respectively. The mechanical paw withdrawal threshold and the score and frequency of acetone-induced foot withdrawal behavior at the corresponding time point were recorded (for testing and calculation methods, see Yoon et al., pain, 59(3), 369-376. & Flatters et al., pain, 2004, 109 (1-2):150-161).
(§2) With reference to the above-mentioned experimental method and Example 1, except for the blank control group, the animals of other groups were injected with a cisplatin solution (4 mg/kg) in the tail veins on DO and D6, respectively, to establish a cisplatin-induced neuropathic pain model in SD rats, namely the CIPN pain model.
(§3) The basal values of the mechanical allodynia and cold allodynia were measured on day 5 (D-5) and day 4 (D-4) before modeling. On day 3 (D-3), the normal rats were divided into 4 groups by random block method and administered according to their body weight. The average weight of animals in each group after grouping was about 250 g. As for the animals of blank control group, vehicle control, s.c., D-3/D3/D9/D16 group, test sample DS002, 0.02 mg/kg, s.c., D-3/D3/D9/D16 group and test sample DS002, 0.5 mg/kg, s.c., D-3/D3/D9/D16 group, the basal values of mechanical paw withdrawal threshold were 26.00±0.00 g, 23.95±1.63 g, 23.50±1.68 g and 22.77±1.71 g, respectively; the basal values of acetone-induced foot withdrawal behavior total score were 0.50±0.34, 0.55±0.31, 0.27±0.19 and 0.55±0.28, respectively; the basal values of the response frequency were 6.00±4.27%, 7.27±4.07%, 3.64±2.44% and […], respectively.

[2] = tested on: cisplatin-induced neuropathic pain model in SD rats; assay: von Frey mechanical allodynia, cisplatin-induced neuropathic pain model; conditions: for Mean value of mechanical paw withdrawal threshold: s.c.
Protocol: (§4) All female SD rats were measured on day −5 (D-5) and day −4 (D-4) for basal values of von Frey mechanical allodynia and acetone cold allodynia (the day on formally establishing the model with paclitaxel administration was recorded as DO). SD rats were randomly divided into 5 groups according to body weight, which were blank control group, vehicle control (Vehicle control), s.c., D-3/D3/D9 group, DS002 0.1 mg/kg, s.c., D-3/D3/D9 group, DS002 0.5 mg/kg, s.c., D-3/D3/D9 group, DS002 2.5 mg/kg, s.c., D-3/D3/D9 group, respectively. Except for the blank control group, the other groups of animals were injected intraperitoneally with a chemotherapeutic agent solution on DO, D2, D4 and D6, respectively, to establish a chemotherapeutic agent-induced neuropathic pain model in SD rats. Wherein, von Frey is a stimulating material used in the measurement method of mechanical stimulation pain threshold; acetone is a stimulating substance used in the measurement method of cold pain threshold.
as §1, §2, §3

[3] = tested on: vincristine-induced neuropathic pain model in SD rats; assay: von Frey mechanical allodynia, vincristine-induced neuropathic pain model; conditions: for Mean value of mechanical paw withdrawal threshold: s.c.
Protocol: as §4, §1
(§5) With reference to the above-mentioned experimental method and Example 1, except for the blank control group, the other groups of animals were injected intraperitoneally with a vincristine solution (0.1 mg/kg) from DO to D9, respectively, to establish a vincristine-induced neuropathic pain model in SD rats, namely, the CIPN pain model.

[4] = tested on: vincristine-induced neuropathic pain model in SD rats; assay: acetone cold allodynia, vincristine-induced neuropathic pain model; conditions: s.c.
Protocol: as §4, §1, §5

[5] = tested on: paclitaxel-induced neuropathic pain model in SD rats; assay: acetone cold allodynia, paclitaxel-induced neuropathic pain model; conditions: s.c.
Protocol: as §4, §1
(§6) The above experimental method was used, except for the blank control group, the other groups of animals were injected intraperitoneally with a chemotherapeutic agent solution (4 mg/kg) on DO, D2, D4 and D6, respectively, to establish a paclitaxel-induced neuropathic pain model in SD rats, namely the CIPN pain model.

[6] = tested on: paclitaxel-induced neuropathic pain model in SD rats; assay: von Frey mechanical allodynia, paclitaxel-induced neuropathic pain model; conditions: for Mean value of mechanical paw withdrawal threshold: s.c., D-3/D3/D9
Protocol: as §4, §1, §6

[7] = 0.5 mg/kg, D-3/D3/D9/D16, D22, listed as D5002
[8] = 0.1 mg/kg, D-3/D3/D9, D-4 basal value before administration
[9] = 0.5 mg/kg, D-3/D3/D9, D-4 basal value before administration
[10] = 2.5 mg/kg, D-3/D3/D9, D-4 basal value before administration

With “DS002: humanized recombinant monoclonal antibody targeting nerve growth factor, IgG1 subtype, kappa light chain; heavy/light chain SEQ ID NO:3 and 4” the “Mean value of response frequency of cold allodynia” value (“Mean value … of cold allodynia” for short) ([1]; 0.02 mg/kg, D-3/D3/D9/D16, D8) was 7.27±4.07% and 7.27%, the “Mean value … of cold allodynia” value ([1]; 0.02 mg/kg, D-3/D3/D9/D16, D15) was 16.36±5.92% and 16.36% and the “Mean value … of cold allodynia” value ([1]; 0.02 mg/kg, D-3/D3/D9/D16, D22) was 9.09±4.15% and 9.09%. For the same substance, the “Mean value … of cold allodynia” value ([1]; 0.02 mg/kg, D-3/D3/D9/D16, D-4 basal value before administration) was 3.64±2.44% and 3.64%, the “Mean value … of cold allodynia” value ([1]; 0.5 mg/kg, D-3/D3/D9/D16, D8) was 7.27±4.07% and 7.27% and the “Mean value … of cold allodynia” value ([1]; 0.5 mg/kg, D-3/D3/D9/D16, D15) was 7.27±4.07% and 7.27%. The “Mean value of acetone-induced foot withdrawal behavior total score” value ([1]; 0.5 mg/kg, D-3/D3/D9/D16, D22) was 0.73, the “Mean value … of cold allodynia” value ([1]; 0.5 mg/kg, D-3/D3/D9/D16, D22) was 10.91% and the “Mean value of acetone-induced foot withdrawal behavior total score” value [1, 7] was 0.73±0.30. The “Mean value … of cold allodynia” value [1, 7] was 10.91±4.15%, the “Mean value … of cold allodynia” value ([1]; 0.5 mg/kg, D-3/D3/D9/D16, D-4 basal value before administration) was 5.45±2.82% and 5.45% and the “cold pain threshold of the rats compared with the vehicle control” value ([1]; summary in words) was “not significantly improved”. The “Mean value of mechanical paw withdrawal threshold” value ([2]; 0.02 mg/kg, D-3/D3/D9/D16, D7) was 8.87 ± 1.98 g, the “Mean value of mechanical paw withdrawal threshold” value ([2]; 0.02 mg/kg, D-3/D3/D9/D16, D14) was 7.22 ± 0.77 g and the “Mean value of mechanical paw withdrawal threshold” value ([2]; 0.02 mg/kg, D-3/D3/D9/D16, D21) was 14.22 ± 2.63 g. The “Mean value of mechanical paw withdrawal threshold” value ([2]; 0.02 mg/kg, D-3/D3/D9/D16, D-5 basal value before administration) was 23.50 ± 1.68 g, the “Mean value of mechanical paw withdrawal threshold” value ([2]; 0.5 mg/kg, D-3/D3/D9/D16, D7) was 7.62 ± 1.18 g and the “Mean value of mechanical paw withdrawal threshold” value ([2]; 0.5 mg/kg, D-3/D3/D9/D16, D14) was 10.73 ± 1.60 g. For the same substance, the “Mean value of mechanical paw withdrawal threshold” value ([2]; 0.5 mg/kg, D-3/D3/D9/D16, D21) was 16.37 ± 2.36 g, the “Mean value of mechanical paw withdrawal threshold” value ([2]; 0.5 mg/kg, D-3/D3/D9/D16, D-5 basal value before administration) was 22.77 ± 1.71 g and the “mechanical paw withdrawal threshold of rats compared with the Vehicle control” value ([2]; summary in words) was “significantly increased”. For the same substance, the “Mean value of mechanical paw withdrawal threshold” value ([3]; 0.1 mg/kg, D-3/D3/D9, D7) was 7.02 ± 1.05 g, the “Mean value of mechanical paw withdrawal threshold” value ([3]; 0.1 mg/kg, D-3/D3/D9, D14) was 9.76 ± 1.10 g and the “Mean value of mechanical paw withdrawal threshold” value ([3]; 0.1 mg/kg, D-3/D3/D9, D-5 basal value before administration) was 15.00 ± 0.00 g. The “Mean value of mechanical paw withdrawal threshold” value ([3]; 0.5 mg/kg, D-3/D3/D9, D7) was 8.20 ± 1.78 g, the “Mean value of mechanical paw withdrawal threshold” value ([3]; 0.5 mg/kg, D-3/D3/D9, D14) was 11.00 ± 0.94 g and the “Mean value of mechanical paw withdrawal threshold” value ([3]; 0.5 mg/kg, D-3/D3/D9, D-5 basal value before administration) was 15.00 ± 0.00 g. The “Mean value of mechanical paw withdrawal threshold” value ([3]; 2.5 mg/kg, D-3/D3/D9, D7) was 8.43 ± 0.92 g, the “Mean value of mechanical paw withdrawal threshold” value ([3]; 2.5 mg/kg, D-3/D3/D9, D14) was 13.31 ± 0.76 g and the “Mean value of mechanical paw withdrawal threshold” value ([3]; 2.5 mg/kg, D-3/D3/D9, D-5 basal value before administration) was 14.16 ± 0.60 g. The “mechanical paw withdrawal threshold of rats compared with the Vehicle control” value ([3]; summary in words) was “significantly increased”, the “Mean value … of cold allodynia” value ([4]; 0.1 mg/kg, D-3/D3/D9, D8) was 58.00±6.96% and 58.00% and the “Mean value of acetone-induced foot withdrawal behavior total score” value ([4]; 0.1 mg/kg, D-3/D3/D9, D15) was 3.00. The “Mean value … of cold allodynia” value ([4]; 0.1 mg/kg, D-3/D3/D9, D15) was 42.00%, the “Mean value of acetone-induced foot withdrawal behavior total score” value [4, 8] was 0.10 and the “Mean value … of cold allodynia” value [4, 8] was 2.00%. For the same substance, the “Mean value … of cold allodynia” value ([4]; 0.5 mg/kg, D-3/D3/D9, D8) was 44.00±7.77% and 44.00%, the “Mean value of acetone-induced foot withdrawal behavior total score” value ([4]; 0.5 mg/kg, D-3/D3/D9, D15) was 2.80 and the “Mean value … of cold allodynia” value ([4]; 0.5 mg/kg, D-3/D3/D9, D15) was 34.00%. The “Mean value of acetone-induced foot withdrawal behavior total score” value [4, 9] was 0.30, the “Mean value … of cold allodynia” value [4, 9] was 4.00% and the “Mean value … of cold allodynia” value ([4]; 2.5 mg/kg, D-3/D3/D9, D8) was 44.00±4.99% and 44.00%. For the same substance, the “Mean value of acetone-induced foot withdrawal behavior total score” value ([4]; 2.5 mg/kg, D-3/D3/D9, D15) was 1.80, the “Mean value … of cold allodynia” value ([4]; 2.5 mg/kg, D-3/D3/D9, D15) was 24.00% and the “Mean value of acetone-induced foot withdrawal behavior total score” value [4, 10] was 0.30. The “Mean value … of cold allodynia” value [4, 10] was 4.00%, the “Mean value of acetone-induced foot withdrawal response score” value ([5]; 0.1 mg/kg, D-3/D3/D9, D8) was 3.70 and the “Mean value … of cold allodynia” value ([5]; 0.1 mg/kg, D-3/D3/D9, D8) was 63.50%. The “Mean value of acetone-induced foot withdrawal response score” value ([5]; 0.1 mg/kg, D-3/D3/D9, D15) was 1.80, the “Mean value … of cold allodynia” value ([5]; 0.1 mg/kg, D-3/D3/D9, D15) was 33.40% and the “Mean value of acetone-induced foot withdrawal response score” value [5, 8] was 0.60. The “Mean value … of cold allodynia” value [5, 8] was 13.40%, the “Mean value of acetone-induced foot withdrawal response score” value ([5]; 0.5 mg/kg, D-3/D3/D9, D8) was 2.50 and the “Mean value … of cold allodynia” value ([5]; 0.5 mg/kg, D-3/D3/D9, D8) was 50.10%. For the same substance, the “Mean value of acetone-induced foot withdrawal response score” value ([5]; 0.5 mg/kg, D-3/D3/D9, D15) was 1.00, the “Mean value … of cold allodynia” value ([5]; 0.5 mg/kg, D-3/D3/D9, D15) was 23.20% and the “Mean value of acetone-induced foot withdrawal response score” value [5, 9] was 0.50. For the same substance, the “Mean value … of cold allodynia” value [5, 9] was 13.30%, the “Mean value of acetone-induced foot withdrawal response score” value ([5]; 2.5 mg/kg, D-3/D3/D9, D8) was 3.30 and the “Mean value … of cold allodynia” value ([5]; 2.5 mg/kg, D-3/D3/D9, D8) was 70.0%. For the same substance, the “Mean value of acetone-induced foot withdrawal response score” value ([5]; 2.5 mg/kg, D-3/D3/D9, D15) was 0.70, the “Mean value … of cold allodynia” value ([5]; 2.5 mg/kg, D-3/D3/D9, D15) was 19.90% and the “Mean value of acetone-induced foot withdrawal response score” value [5, 10] was 0.90. For the same substance, the “Mean value … of cold allodynia” value [5, 10] was 19.90%, the “Mean value of mechanical paw withdrawal threshold” value ([6]; 0.1 mg/kg, D7, paclitaxel model) was 8.90 ± 1.20 g and the “Mean value of mechanical paw withdrawal threshold” value ([6]; 0.1 mg/kg, D14, paclitaxel model) was 10.55 ± 1.04 g. For the same substance, the “Mean value of mechanical paw withdrawal threshold” value ([6]; 0.1 mg/kg, D-5 basal value before administration, paclitaxel model) was 13.48 ± 1.03 g, the “Mean value of mechanical paw withdrawal threshold” value ([6]; 0.5 mg/kg, D7, paclitaxel model) was 10.40 ± 1.33 g and the “Mean value of mechanical paw withdrawal threshold” value ([6]; 0.5 mg/kg, D14, paclitaxel model) was 10.94 ± 1.16 g. For the same substance, the “Mean value of mechanical paw withdrawal threshold” value ([6]; 0.5 mg/kg, D-5 basal value before administration, paclitaxel model) was 13.25 ± 0.98 g, the “Mean value of mechanical paw withdrawal threshold” value ([6]; 2.5 mg/kg, D7, paclitaxel model) was 7.74 ± 1.19 g and the “Mean value of mechanical paw withdrawal threshold” value ([6]; 2.5 mg/kg, D14, paclitaxel model) was 12.30 ± 0.94 g. For the same substance, the “Mean value of mechanical paw withdrawal threshold” value ([6]; 2.5 mg/kg, D-5 basal value before administration, paclitaxel model) was 13.50 ± 0.82 g, the pain threshold ([6]; 0.1-2.5 mg/kg subcutaneously every 6 days for 3 consecutive times, paclitaxel-induced rat neuropathic pain model, summary in words) was “preventatively increased” and the “mechanical paw withdrawal threshold of rats compared with the Vehicle control” value ([6]; paclitaxel model, summary in words) was “significantly increased”.
